According to patent US20210395313A1, “PEPTIDE PAC1 ANTAGONISTS” (AMGEN INC., priority 2017, published 2021):
Where a SMILES comes first, the peptide text is derived from it. Bridges are numbered along the chain shown (N, C = ends). Where no end group is shown, it is not given here.

How the values were obtained:
human PAC1 receptor = biological target: T1, human PAC1 receptor (Homo sapiens, UniProt P41586); assay: LANCE Ultra cAMP accumulation antagonist assay in SHSY-5Y cells; type: cell-based;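 further: inhibition of cAMP accumulation evoked by PAC1 agonist at its EC80 in SHSY-5Y cells endogenously expressing receptor, 30 min preincubation then 15 min agonist, TR-FRET readout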
T1 construct: SHSY-5Y (human neuroblastoma cell line) and RG-2 (rat glioma cell line) cells endogenously express human and rat PAC1 receptors, respectively; endogenous in cells; host or cells: SHSY-5Y human neuroblastoma cells
T1 sequence (P41586 21-468): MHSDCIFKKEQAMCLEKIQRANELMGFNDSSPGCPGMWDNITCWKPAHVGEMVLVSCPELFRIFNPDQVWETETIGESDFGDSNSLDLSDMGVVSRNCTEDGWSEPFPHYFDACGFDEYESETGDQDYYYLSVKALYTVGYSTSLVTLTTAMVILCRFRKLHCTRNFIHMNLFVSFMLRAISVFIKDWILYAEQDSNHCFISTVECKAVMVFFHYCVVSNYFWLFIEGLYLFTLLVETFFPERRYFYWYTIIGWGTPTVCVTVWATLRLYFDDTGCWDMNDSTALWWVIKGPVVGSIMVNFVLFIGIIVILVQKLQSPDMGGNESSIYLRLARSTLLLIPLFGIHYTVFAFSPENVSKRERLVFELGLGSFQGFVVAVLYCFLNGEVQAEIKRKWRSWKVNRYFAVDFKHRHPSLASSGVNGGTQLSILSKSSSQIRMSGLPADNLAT

rat PAC1 receptor = biological target: T2, rat PAC1 receptor (Rattus norvegicus, UniProt P32215); assay: LANCE Ultra cAMP accumulation antagonist assay in RG-2 cells; type: cell-based;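 further: RG-2 rat glioma cells endogenously expressing PAC1, test peptide preincubated 30 min, then PAC1 agonist added at its EC80 for 15 min, cAMP accumulation read by LANCE Ultra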
T2 construct: SHSY-5Y (human neuroblastoma cell line) and RG-2 (rat glioma cell line) cells endogenously express human and rat PAC1 receptors, respectively; endogenous in cells; host or cells: RG-2 rat glioma cells
T2 sequence (P32215 20-523): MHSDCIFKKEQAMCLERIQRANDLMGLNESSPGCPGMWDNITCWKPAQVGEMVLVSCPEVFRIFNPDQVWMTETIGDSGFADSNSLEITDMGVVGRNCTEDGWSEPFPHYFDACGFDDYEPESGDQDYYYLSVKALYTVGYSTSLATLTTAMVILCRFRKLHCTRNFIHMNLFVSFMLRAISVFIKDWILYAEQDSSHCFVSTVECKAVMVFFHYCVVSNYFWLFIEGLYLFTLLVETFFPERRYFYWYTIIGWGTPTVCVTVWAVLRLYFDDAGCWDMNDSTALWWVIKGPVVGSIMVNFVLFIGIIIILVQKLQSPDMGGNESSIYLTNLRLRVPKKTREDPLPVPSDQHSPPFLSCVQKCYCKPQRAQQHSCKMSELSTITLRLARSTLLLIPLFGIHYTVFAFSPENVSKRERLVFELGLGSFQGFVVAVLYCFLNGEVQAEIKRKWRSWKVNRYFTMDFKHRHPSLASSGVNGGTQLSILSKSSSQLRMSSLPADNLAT

Row | Compound | IC50 (human PAC1 receptor) [nM] | IC50 (rat PAC1 receptor) [nM]
1 | C#CC[C@@H]1NC(=O)[C@H](CCC(N)=O)NC(=O)[C@H](CCCCN)NC(=O)[C@H](CCC(N)=O)NC(=O)[C@@H](NC(=O)[C@H](CC(=O)O)NC(=O)[C@H](CC(=O)O)NC(=O)[C@@H](NC(=O)[C@H](C)NC(=O)[C@H](CCCCN)NC(=O)[C@H](CCCNC(=N)N)NC(=O)[C@H](Cc2ccccc2)NC(=O)[C@H](CCC(N)=O)NC(=O)[C@@H]2CSSC[C@H](N)C(=O)N[C@@H](CC(=O)O)C(=O)N[C@@H](C)C(=O)N[C@@H]([C@@H](C)O)C(=O)N2)[C@@H](C)CC)CSSC[C@@H](C(=O)N[C@@H](CCSC)C(=O)N[C@@H](CCCCN)C(=O)N[C@@H](CCC(N)=O)C(=O)N[C@@H](CCCCN)C(=O)N[C@@H](CCCCN)C(=O)N[C@@H](CCCCN)C(=O)N[C@@H](CCC(=O)O)C(=O)N[C@@H](Cc2ccccc2)C(=O)N[C@@H](CCCCN)C(=O)N[C@@H](C)C(=O)NCC(N)=O)NC(=O)[C@H](C)NC(=O)[C@H](CCCCN)NC(=O)[C@H](Cc2ccccc2)NC(=O)[C@H](C(C)C)NC(=O)[C@H](CO)NC(=O)CNC(=O)[C@@H]2CCCN2C(=O)[C@H](C(C)C)NC(=O)[C@H](CC(N)=O)NC(=O)[C@H](CO)NC(=O)[C@H](Cc2c[nH]cn2)NC(=O)[C@H](Cc2c[nH]cn2)NC1=O [compound 32] | 0.01 to 1 | 0.01 to 1
2 | CDATCQFRKAIDDCAKQAHHSNVPGSVFKACIKQKKKEFKAG-NH2 (disulfide 1-5, 14-31) [compound 14] | 0.01 to 1 | 0.01 to 1
3 | GCDATCQFRKAIDDCAKQAHHSNVPGSVFKACMKQKKKEFKAGH (disulfide 2-6, 15-32) [compound 59] | 0.01 to 1 | 0.01 to 1
4 | CDATCQFRKAIDDCAHRAWHSNVPGSVFKLCMKQKKKEWKAGH-NH2 (disulfide 1-5, 14-31) [compound 424] | 0.01 to 1 | 0.01 to 1
5 | CDATCQFRKAIDDCSWFAIHSNVPGSVFKACMKQKKKEFKAG-NH2 (disulfide 1-5, 14-31) [compound 115] | 0.01 to 1 | 0.01 to 1
6 | CDATCQFRKAIDDCYYRSKHSNVPGSVFKACMKQKKKEFKAG-NH2 (disulfide 1-5, 14-31) [compound 43] | 0.01 to 1 | < 0.01
7 | CDATCQFRKAIDDCLWYARHSNVPGSVFKACMKQKKKEFKAG-NH2 (disulfide 1-5, 14-31) [compound 120] | 0.01 to 1 | 0.01 to 1
8 | CC[C@H](C)[C@H](NC(=O)[C@H](C)NC(=O)[C@H](CCCCN)NC(=O)[C@H](CCCNC(=N)N)NC(=O)[C@H](Cc1ccccc1)NC(=O)[C@H](CCC(N)=O)NC(=O)[C@@H]1CSSC[C@H](N)C(=O)N[C@@H](CC(=O)O)C(=O)N[C@@H](C)C(=O)N[C@@H]([C@@H](C)O)C(=O)N1)C(=O)N[C@@H](CC(=O)O)C(=O)N[C@@H](CC(=O)O)C(=O)N[C@H]1CSSC[C@@H](C(=O)N[C@@H](CCSC)C(=O)N[C@@H](CCCCN)C(=O)N[C@@H](CCC(N)=O)C(=O)N[C@@H](CCCCN)C(=O)N[C@@H](CCCCN)C(=O)N[C@@H](CCCCN)C(=O)N[C@@H](CCC(=O)O)C(=O)N[C@@H](Cc2ccccc2)C(=O)N[C@@H](CCCCN)C(N)=O)NC(=O)[C@H](CCC(=O)O)NC(=O)[C@H](CCCCN)NC(=O)[C@H](Cc2ccccc2)NC(=O)[C@H](C(C)C)NC(=O)[C@H](CO)NC(=O)[C@H](CO)NC(=O)[C@H](Cc2c[nH]cn2)NC(=O)[C@H](Cc2c[nH]cn2)NC(=O)[C@H](C)NC(=O)[C@H](CCC(N)=O)NC(=O)[C@H](CCCCN)NC(=O)[C@H](CCC(N)=O)NC1=O [compound 225] (H-CDATCQFRKAIDDCQKQAHHSSVFKECMKQKKKEFK-NH2; disulfide 1-5, 14-27) | 0.01 to 1 | 1 to 100
9 | CDATCQFRKAIDDCAWFALHSNVPGSVFKACMKQKKKEFKAG-NH2 (disulfide 1-5, 14-31) [compound 91] | 0.01 to 1 | 0.01 to 1
10 | CDATCQFRKAIDDCQKQAHHSNVPGSVFKACMKQKKKEFKA-NH2 (disulfide 1-5, 14-31) [compound 214] | 1 to 100 | 0.01 to 1
11 | GCDATCQFRKAIDDCAKQAHHSNVPGSVFKACMKQKKKEFKAGY (disulfide 2-6, 15-32) [SEQ ID NO 58] | 0.01 to 1 | 0.01 to 1
12 | CDATCQFRKAIDDCAKQAHHSNVPGSVFKACMKQKKKEFKAGY (disulfide 1-5, 14-31) [SEQ ID NO 56] | 0.01 to 1 | 0.01 to 1
13 | CDATCQFRKAIDDCVRQAHHSNVPGSVFKACMKQKKKEWKAN (disulfide 1-5, 14-31) [compound 87] | 0.01 to 1 | 0.01 to 1
14 | CC[C@H](C)[C@H](NC(=O)[C@H](C)NC(=O)[C@H](CCCCN)NC(=O)[C@H](CCCNC(=N)N)NC(=O)[C@H](Cc1ccccc1)NC(=O)[C@H](CCC(N)=O)NC(=O)[C@@H]1CSSC[C@H](N)C(=O)N[C@@H](CC(=O)O)C(=O)N[C@@H](C)C(=O)N[C@@H]([C@@H](C)O)C(=O)N1)C(=O)N[C@@H](CC(=O)O)C(=O)N[C@@H](CC(=O)O)C(=O)N[C@H]1CSSC[C@@H](C(=O)N[C@@H](CCSC)C(=O)N[C@@H](CCCCN)C(=O)N[C@@H](CCC(N)=O)C(=O)N[C@@H](CCCCN)C(=O)N[C@@H](CCCCN)C(=O)N[C@@H](CCCCN)C(=O)N[C@@H](CCC(=O)O)C(=O)N[C@@H](Cc2c[nH]c3ccccc23)C(=O)N[C@@H](CCCCN)C(=O)N[C@@H](C)C(=O)NCC(=O)N[C@@H](Cc2c[nH]cn2)C(=O)O)NC(=O)[C@H](C)NC(=O)[C@H](CCCCN)NC(=O)[C@H](Cc2ccccc2)NC(=O)[C@H](C(C)C)NC(=O)[C@H](CO)NC(=O)[C@H](CO)NC(=O)[C@H](Cc2c[nH]cn2)NC(=O)[C@H](Cc2c[nH]cn2)NC(=O)[C@H](C)NC(=O)[C@H](CCC(N)=O)NC(=O)[C@H](CCCNC(=N)N)NC(=O)[C@H](C)NC1=O [compound 28] (H-CDATCQFRKAIDDCARQAHHSSVFKACMKQKKKEWKAGH-OH; disulfide 1-5, 14-27) | 0.01 to 1 | 0.01 to 1
15 | CDATCQFRKAIDDCMWFAWHSNVPGSVFKACMKQKKKEFKAG-NH2 (disulfide 1-5, 14-31) [compound 122] | 0.01 to 1 | 0.01 to 1
16 | CDATCQFRKAIDDCARQAHHSNVPGSVWKACMKQKKKEWKAGH (disulfide 1-5, 14-31) [SEQ ID NO 105] | 0.01 to 1 | 0.01 to 1
17 | CDATCQFRKAIDDCQKQAHHSNVPGSVFKACMKQKKKEFKAGW (disulfide 1-5, 14-31) [compound 145] | 0.01 to 1 | 0.01 to 1
18 | CDATCQFRKAIDDCVRQAYHSNVPGSVFKACMKQKKKEWKAGH (disulfide 1-5, 14-31) [compound 84] | 0.01 to 1 | 0.01 to 1
19 | CDATCQFRKAIDDCAKQAHHSNVPGSVFKACMKQKKKEFKAGH (disulfide 1-5, 14-31) [compound 57] | 0.01 to 1 | 0.01 to 1
20 | CDATCQFRKAIDDCWMLSWHANVPGSVFKACMKQKKKEFKAGH (disulfide 1-5, 14-31) [compound 111] | 0.01 to 1 | 0.01 to 1
21 | CDATCQFRKAIDDCVRQAHHSNVPGSVFKACMKQKKKEWKAGH (disulfide 1-5, 14-31) [SEQ ID NO 156] | 0.01 to 1 | 0.01 to 1
22 | CDATCQFRKAIDDCDKQAHHSNVPGSVFKACMKQKKKEFQAG-NH2 (disulfide 1-5, 14-31) [compound 169] | 0.01 to 1 | 0.01 to 1
23 | CDATCQFRKAIDDCQKQAHHSNVPGSVFKACVKQKKKEFKAG-NH2 (disulfide 1-5, 14-31) [compound 142] | 1 to 100 | 1 to 100
24 | CDATCQFRKAIDDCQRQAHHSNVPGNSVFKECMKQKKKEFK-NH2 (disulfide 1-5, 14-32) [compound 288] | 1 to 100 | 1 to 100
25 | CDATCQFRKAIDDCQKQAHHSNVPGSVFKACMKFRFNVWKAG-NH2 (disulfide 1-5, 14-31) [compound 127] | 0.01 to 1 | 0.01 to 1
